In publication PMC3191288 (Matrix biology : journal of the International Society for …, 2011):
Each block holds one molecule with its values, some of them ahead of it.

Tests used:
[1] = biological target: recombinant human MMP-2^E404A (human) (UniProt P08253); assay: ELISA
[2] = biological target: recombinant full-length TIMP-2 (human (plasmid pGWIGH/htimp-2)) (UniProt P16035); assay: ELISA
proMMP-2 activation = conditions: ref Strongin et al., 1995; cited from earlier work
[3] = test system: proMMP-2 activation in HT1080 fibrosarcoma cells; assay: Cell surface activation of proMMP-2 in Con A stimulated HT1080 cell culture; type: cell-based, human; conditions: Con A 20 μg/ml, 0 nM C-TIMP-2
[4] = test system: proMMP-2 activation by HT1080 cell membranes; assay: Activation of purified proMMP-2 by isolated HT1080 cell membranes; type: biochemical, human; conditions: peptide 3.7–100 μM, 16 h at 22 °C, pH 7.4; repeated at least 3 times
[5] = biological target: T1, PEX (hemopexin domain of MMP-2) (Homo sapiens, UniProt P08253); assay: Surface plasmon resonance, PEX over immobilized peptide; type: binding; conditions: PEX 0.3–10 μM over immobilized peptide, SPR
T1 sequence (P08253 446-660): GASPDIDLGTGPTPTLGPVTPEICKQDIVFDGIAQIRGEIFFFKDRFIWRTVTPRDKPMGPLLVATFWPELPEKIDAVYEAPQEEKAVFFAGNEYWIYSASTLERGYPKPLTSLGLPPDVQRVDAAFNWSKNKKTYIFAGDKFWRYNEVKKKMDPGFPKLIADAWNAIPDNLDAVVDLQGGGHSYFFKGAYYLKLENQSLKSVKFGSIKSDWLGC

[6] = test system: collagen binding domain of MMP-2 (CBD); assay: Surface plasmon resonance, CBD over immobilized peptide; parameters: species or system human; conditions: CBD 10 μM over immobilized peptide, SPR
[7] = biological target: recombinant full-length TIMP-2 (human (plasmid pGWIGH/htimp-2), UniProt P16035 27-220); assay: ELISA
Sequence of recombinant full-length TIMP-2 (P16035 27-220): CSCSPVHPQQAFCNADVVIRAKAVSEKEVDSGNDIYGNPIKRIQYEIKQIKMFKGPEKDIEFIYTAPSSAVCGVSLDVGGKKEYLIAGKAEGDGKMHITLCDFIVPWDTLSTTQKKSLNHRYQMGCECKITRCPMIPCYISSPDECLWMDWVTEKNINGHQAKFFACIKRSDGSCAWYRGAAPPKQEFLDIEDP

Sequence of recombinant full-length TIMP-2 (human (plasmid pGWIGH/htimp-2)) (P16035 27-220): as above

Molecule: tissue inhibitor of matrix metalloproteinase 2 [TIMP-2]
- concentration at which full-length TIMP-2 inhibited activation of proMMP-2 (proMMP-2 activation): greater than 285 nM

Molecule: concanavalin A [Con A]
- activated MMP-2 band intensity [3]: 34,199 RDU
- non-activated MMP-2 band intensity [3]: 3,439 RDU
- proMMP-2 activated by Con A [3]: > 90%

Molecule: CAWYRGAAPPK [P175S]
- inhibition of proMMP-2 activation by peptide [4]: did not have any inhibitory effect on the cell membrane- mediated activation of proMMP-2
- binding of PEX to peptide [5]: consistently very weak
- binding of CBD to peptide [6]: did not bind

Further lines, results first:

- IC50 [1]: 5000 nM
- Kd [1]: 390 nM
Molecule: recombinant carboxyl-terminal domain of TIMP-2 (C-TIMP-2) (from UniProt P16035 154-220) (domain or fragment)

- EC50 [2]: 50 nM
Molecule: recombinant human MMP-2^E404A (from UniProt P08253 30-660) (enzyme)

- EC50 [7]: 150 nM
B1: hemopexin-like domain of MMP-2 (PEX) (domain or fragment, human, UniProt P08253 446-660, looked up)
chain: GASPDIDLGTGPTPTLGPVTPEICKQDIVFDGIAQIRGEIFFFKDRFIWRTVTPRDKPMGPLLVATFWPELPEKIDAVYEAPQEEKAVFFAGNEYWIYSASTLERGYPKPLTSLGLPPDVQRVDAAFNWSKNKKTYIFAGDKFWRYNEVKKKMDPGFPKLIADAWNAIPDNLDAVVDLQGGGHSYFFKGAYYLKLENQSLKSVKFGSIKSDWLGC
modifications: biotinylated (sites not given) in the assays on coated TIMP-2; unlabeled when coated and in SPR
